Molecular target: T1, Adenosine A1 (Rattus norvegicus, UniProt P25099)
T1 construct: gene Adora1; native receptor in rat forebrain P2 membranes
T1 sequence (P25099 1-326): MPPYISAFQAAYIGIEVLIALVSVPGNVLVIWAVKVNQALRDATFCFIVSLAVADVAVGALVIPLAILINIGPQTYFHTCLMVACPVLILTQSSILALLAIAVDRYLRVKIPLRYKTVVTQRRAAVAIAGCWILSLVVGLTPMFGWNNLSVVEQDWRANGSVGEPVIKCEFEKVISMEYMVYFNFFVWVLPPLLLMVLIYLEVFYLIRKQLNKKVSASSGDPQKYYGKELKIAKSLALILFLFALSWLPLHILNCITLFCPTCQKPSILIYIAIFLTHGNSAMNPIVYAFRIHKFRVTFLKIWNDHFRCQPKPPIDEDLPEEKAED
Test: […]GTPγS binding, rat forebrain membranes
Type: biochemical
Conditions: agonist; control without GSNO; 10 μM GDP, pH 7.4, 25 °C

Control / log(EC50): -6.90 ± 0.04
SMILES: Nc1nc(Cl)nc2c1ncn2[C@@H]1O[C@H](CO)[C@@H](O)[C@H]1O [2-chloroadenosine]

From article PMC1090567, “S-Nitrosothiols modulate G protein-coupled receptor signaling in a reversible and highly receptor-specific manner” (BMC Cell Biology, 2005)
